From PubChem BioAssay (NCI)
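1) Cells in 96-well plates. 2) Compound, 48 h, 5 concentrations. 3) Linear interpolation between surrounding doses. 4) Unreached endpoint = highest concentration. Abbreviation: GI50, concentration required for 50% inhibition of growth. TGI: total growth inhibition.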

Key:
Assay in all cases: DTP human tumour cell line panel, 48 h
UACC-257 melanoma = test system: UACC-257 melanoma
NCI-H460 lung = test system: NCI-H460 lung
DU-145 prostate = test system: DU-145 prostate
MDA-MB-231 breast = test system: MDA-MB-231 breast
NCI-H522 lung = test system: NCI-H522 lung
COLO 205 colon = test system: COLO 205 colon
HOP-92 NSCLC = test system: HOP-92 NSCLC
SK-MEL-5 melanoma = test system: SK-MEL-5 melanoma
HCT-15 colon = test system: HCT-15 colon
LOX IMVI melanoma = test system: LOX IMVI melanoma

| SMILES | GI50 (UACC-257 melanoma) [µM] | TGI (UACC-257 melanoma) [µM] | GI50 (NCI-H460 lung) [µM] | TGI (NCI-H460 lung) [µM] | GI50 (DU-145 prostate) [µM] | TGI (DU-145 prostate) [µM] | GI50 (MDA-MB-231 breast) [µM] | TGI (MDA-MB-231 breast) [µM] | GI50 (NCI-H522 lung) [µM] | TGI (NCI-H522 lung) [µM] | GI50 (COLO 205 colon) [µM] | TGI (COLO 205 colon) [µM] | GI50 (HOP-92 NSCLC) [µM] | TGI (HOP-92 NSCLC) [µM] | GI50 (SK-MEL-5 melanoma) [µM] | TGI (SK-MEL-5 melanoma) [µM] | GI50 (HCT-15 colon) [µM] | TGI (HCT-15 colon) [µM] | GI50 (LOX IMVI melanoma) [µM] | TGI (LOX IMVI melanoma) [µM] |
| --- | --- | --- | --- | --- | --- | --- | --- | --- | --- | --- | --- | --- | --- | --- | --- | --- | --- | --- | --- | --- |
| C=C(CNCCc1ccc(O)cc1)[C@@H]1CC[C@]2(CO)CC[C@]3(C)[C@H](CC[C@@H]4[C@@]5(C)CCC(N)C(C)(C)[C@@H]5CC[C@]43C)[C@@H]12 (stereo not given in full) | 0.195 | 0.517 | 1.51 | 3.07 | 1.63 | 2.98 | 1.11 | 2.38 | 1.76 | 3.42 | 1.64 | 3.3 | 1.12 | 2.49 | 1.69 | 3.09 | – | – | – | – |
| CCN(CC)CCOc1ccc(/C=C2\CC3C4CC=C5C[C@@H](OC(C)=O)CC[C@]5(C)C4CC[C@]3(C)C2=O)cc1OC (stereo not given in full) | 6.97 | 31.6 | – | – | 3.87 | 16.6 | 21.1 | > 100 | 14.4 | 33.1 | 15.9 | > 100 | 13.3 | 37.7 | – | – | 2.96 | 10 | – | – |
| O=C(Nc1ccccc1O)c1ccc(CNC(=O)c2ccsc2Nc2ccnc(C(F)(F)F)c2)cc1 | 1.52 | 7.03 | 2.38 | 11.4 | 2.12 | 5.67 | 2.85 | 13.2 | 1.77 | 6.86 | 3.4 | 13.4 | – | – | 1.69 | 4.07 | 3.31 | 18.9 | 1.63 | 3.99 |
| O=C(O)Cn1ccnc1[N+](=O)[O-] | – | > 100 | – | > 100 | – | > 100 | – | > 100 | – | > 100 | – | > 100 | – | > 100 | – | > 100 | – | > 100 | – | – |
| COc1ccc(C2NCCc3c2[nH]c2ccccc32)cc1 (stereo not given) | – | > 100 | – | > 100 | – | – | – | – | – | > 100 | – | > 100 | – | > 100 | – | 66.1 | – | > 100 | – | > 100 |
| c1cnc2[nH]cc(-c3csc(-c4cn(CCCN5CCCCC5)c5ccccc45)n3)c2c1 | 1.97 | 3.73 | – | – | 1.74 | 3.16 | 1.63 | 3.11 | – | – | – | – | 1.36 | 2.88 | – | – | 1.72 | 3.18 | – | – |
| COc1ccc2[nH]c3c(=O)[nH]ncc3c2c1 | – | > 100 | – | > 100 | – | – | – | – | – | > 100 | – | > 100 | – | > 100 | – | > 100 | – | > 100 | – | > 100 |
| O=C(/C=C/c1cn(-c2ccccc2)nc1-c1ccc([N+](=O)[O-])cc1)c1ccc(Cl)cc1 | > 100 | > 100 | – | – | – | – | 2.9 | > 100 | 6.41 | > 100 | – | – | 3.36 | 70.1 | – | > 100 | – | – | – | – |
| Cc1cc(=O)oc2cc(OCCn3c(C)nn(-c4ccc(Cl)cc4)c3=O)ccc12 | – | – | 2.8 | > 100 | 3.9 | > 100 | 4.53 | > 100 | 3.85 | 33.2 | 2.39 | 7.34 | 16.1 | > 100 | 0.848 | > 100 | 3.2 | > 100 | 4.83 | > 100 |
| O=C(Nc1cc(S(=O)(=O)c2ccc(Cl)cc2)ccc1Cl)c1cc(I)cc(I)c1O | 18.4 | 42.1 | 15.2 | 38.5 | 17.2 | 30.9 | 17.4 | 36.5 | 11.8 | 26.6 | 15.8 | 29.6 | – | – | 14.9 | 28.3 | 16.5 | 32.7 | 18.2 | 38.7 |
| CC1(C)CC(=O)c2c(oc3cc(O)c(O)cc23)C1 | – | > 100 | – | 85 | – | – | – | – | – | 24.3 | – | > 100 | – | 95.2 | – | 32.5 | – | > 100 | – | 31.4 |
| O=C(O)[C@@H]1CCCC[C@@H]1C(=O)N(C1CCCCC1)C1CCCCC1 | – | > 100 | – | > 100 | – | – | – | – | – | > 100 | – | > 100 | – | > 100 | – | > 100 | – | > 100 | – | > 100 |
| COC(=O)C1(F)C(=O)NC(=O)NC1OC (stereo not given) | – | > 100 | – | > 100 | – | – | – | – | – | > 100 | – | > 100 | – | > 100 | – | > 100 | – | > 100 | – | > 100 |
| Nc1ccn([C@@H]2C(F)=C(CO)[C@@H](O)[C@H]2O)c(=O)n1 | – | – | 0.384 | > 100 | 0.445 | > 100 | 2.73 | > 100 | 0.45 | > 100 | 0.838 | > 100 | – | – | 4.37 | > 100 | 0.545 | > 100 | 0.453 | > 100 |
| CC12OC(C(=O)C13CCC3)C1C(=O)c3ccccc3C(=O)C12 (stereo not given) | 44 | > 100 | > 100 | > 100 | – | – | 10.4 | > 100 | > 100 | > 100 | > 100 | > 100 | > 100 | > 100 | – | – | > 100 | > 100 | – | – |
| C/C(=N/NC(=O)CC(=O)N(C(=O)c1ccccc1Cl)c1ccc(C)cc1)c1cc2ccccc2oc1=O | – | > 100 | – | > 100 | – | – | – | – | – | > 100 | – | > 100 | – | > 100 | – | > 100 | – | > 100 | – | > 100 |
| CCCCCCCCCC(=O)Oc1cccc2onc(C)c12 | – | > 100 | – | > 100 | – | – | – | – | – | > 100 | – | > 100 | – | > 100 | – | > 100 | – | > 100 | – | > 100 |
| COc1cc(O)c(C(C)=O)c(O)c1 | – | > 100 | – | > 100 | – | > 100 | – | – | – | > 100 | – | > 100 | – | 90.8 | – | > 100 | – | > 100 | – | > 100 |
| CC1=C(C(=O)CC(=O)C(=O)NC2C3CC4CC(C3)CC2C4)Sc2ccccc2N1 (stereo not given) | – | > 100 | – | > 100 | – | – | – | – | – | > 100 | – | > 31.6 | – | > 100 | – | > 100 | – | > 100 | – | > 100 |
